Test results from patent US10961228B2, “JAK1 selective inhibitors” (AstraZeneca AB, priority 2017, dated 2021).

What was measured:
[1] = target: recombinant JAK3 (amino acids 781-1124) (Homo sapiens (Human), UniProt P52333); test: Enzyme inhibition studies, JAK3 (5 mM ATP, Caliper); format: biochemical
Experimental: (§1) JAK enzyme was expressed as N-terminal GST fusion in insect cells and purified by glutathione-affinity and size-exclusion chromatographies. Enzymes were assayed at their approximated high end of physiological ATP concentration of 5 mM, in the presence of inhibitor dosed at 30, 3, 0.3, 0.03, 0.003 and 0 μM final test concentrations.
(§2) Phosphorylated and unphosphotylated peptides were separated and quantified by a Caliper LC3000 system (Caliper Life Sciences, MA) for calculating percent inhibition.

[2] = target: recombinant JAK2 (amino acids 831-1132) (Homo sapiens (Human), UniProt O60674); test: Enzyme inhibition studies, JAK2 (5 mM ATP, Caliper); format: biochemical
Experimental: as §1, §2

[3] = system: IL-13 induced STAT6 promotor luciferase reporter in U937 monocytes (U937-STAT6-Luc); test: Cellular interleukin (IL-13) induced JAK-STAT6-luciferase assay (pSTAT6); format: cell-based; conditions: Homo sapiens, U-937; IL-13 induced STAT6-luciferase, U937-STAT6-Luc cells
Experimental: Cells were harvested by centrifugation at 250 g for 5 min and resuspended in Assay buffer (20 mM HEPES, 1×HBSS and 0.1% BSA) to 1000 cells pr μl. For stimulation of cells was used interleukin (IL-13) also dissolved in Assay buffer to […]. […] Test and control compounds were applied to assay plates (low vol white 384-well plates) in serial dilutions from 10 mM to 0.5 nM at 5 nl pr well in DMSO.
To each well was added 4 μl cells and 4 μl interleukin (IL-13) and the plates were sealed and incubated at 37° C. for 4½ h and then at room temperature for 30 min. The assay was developed by addition of 4 μl pr well of SteadyGlo (Promega) and after […] the plates were read at an Envision plate reader with luminescence filter.

[4] = target: recombinant JAK1 (amino acids 866-1154) (Homo sapiens (Human), UniProt P23458); test: Enzyme inhibition studies, JAK1 (5 mM ATP, Caliper); format: biochemical
Experimental: as §1, §2

Sequence of recombinant JAK1 (amino acids 866-1154) (P23458 866-1154): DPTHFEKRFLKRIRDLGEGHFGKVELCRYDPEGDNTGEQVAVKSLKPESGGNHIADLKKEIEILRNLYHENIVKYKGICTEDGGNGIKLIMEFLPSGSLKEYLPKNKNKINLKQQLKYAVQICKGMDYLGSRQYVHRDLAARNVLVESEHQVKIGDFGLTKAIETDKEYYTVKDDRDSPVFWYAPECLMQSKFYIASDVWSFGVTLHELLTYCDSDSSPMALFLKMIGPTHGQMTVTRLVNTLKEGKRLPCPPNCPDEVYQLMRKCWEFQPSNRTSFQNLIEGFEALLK
Sequence of recombinant JAK3 (amino acids 781-1124) (P52333 781-1124): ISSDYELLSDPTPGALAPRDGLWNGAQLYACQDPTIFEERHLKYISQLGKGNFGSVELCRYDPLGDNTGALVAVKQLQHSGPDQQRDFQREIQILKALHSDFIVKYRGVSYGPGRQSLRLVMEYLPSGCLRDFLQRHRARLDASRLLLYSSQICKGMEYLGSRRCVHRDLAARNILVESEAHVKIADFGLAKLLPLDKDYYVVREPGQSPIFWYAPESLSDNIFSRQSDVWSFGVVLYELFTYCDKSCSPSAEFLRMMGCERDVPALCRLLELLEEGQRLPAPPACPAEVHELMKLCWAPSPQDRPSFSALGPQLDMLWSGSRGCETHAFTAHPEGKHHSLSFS
Sequence of recombinant JAK2 (amino acids 831-1132) (O60674 831-1132): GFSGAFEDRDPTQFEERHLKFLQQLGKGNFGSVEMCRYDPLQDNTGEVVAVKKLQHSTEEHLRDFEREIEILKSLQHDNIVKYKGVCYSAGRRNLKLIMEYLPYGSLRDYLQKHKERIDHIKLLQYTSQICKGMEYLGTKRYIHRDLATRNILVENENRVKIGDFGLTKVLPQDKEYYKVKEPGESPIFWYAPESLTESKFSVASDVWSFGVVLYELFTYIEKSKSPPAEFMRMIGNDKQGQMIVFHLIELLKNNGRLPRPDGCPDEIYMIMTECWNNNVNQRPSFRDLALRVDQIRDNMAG

| IC50 [1] [nM] | IC50 [2] [nM] | IC50 [3] [nM] | IC50 [4] [nM] | SMILES |
| --- | --- | --- | --- | --- |
| > 30000 | 7410 | 147 | 45.2 | COC[C@@H](C(=O)Nc1cccc2c(-c3nc(Nc4cccc(S(C)(=O)=O)c4F)ncc3C)c[nH]c12)N1C[C@@H](C)N[C@H](C)C1 [Example 28, (S)-2-((3R,5R)-3,5-dimethylpiperazin-1-yl)-N-(3-(2-((2-fluoro-3-(methylsulfonyl)phenyl)amino)-5-methylpyrimidin-4-yl)-1H-indol-7-yl)-3-methoxypropanamide] |
| > 30000 |  | 93 | 13 | CC(C(=O)Nc1cccc2c(-c3nc(Nc4cccc(S(C)(=O)=O)c4F)ncc3F)c[nH]c12)N1CCN(C)C[C@H]1C (stereo in doubt) [Example 49, (R)-2-((R)-2,4-dimethylpiperazin-1-yl)-N-(3-(5-fluoro-2-((2-fluoro-3-(methylsulfonyl)phenyl)amino)pyrimidin-4-yl)-1H-indol-7-yl)propanamide] |
| > 30000 | 3460 | 42 | 4.2 | Cc1cnc(Nc2cccc(S(C)(=O)=O)c2F)nc1-c1c[nH]c2c(NC(=O)[C@@H](C)N3CCNCC3)cccc12 [Example 24, (R)-N-(3-(2-((2-fluoro-3-(methylsulfonyl)phenyl)amino)-5-methylpyrimidin-4-yl)-1H-indol-7-yl)-2-(piperazin-1-yl)propanamide] |
|  |  | 99 |  | CCOC[C@H](C(=O)Nc1cccc2c(-c3nc(Nc4cccc(S(C)(=O)=O)c4F)ncc3F)c[nH]c12)N1CCN(C)CC1 [Example 63, (R)-3-ethoxy-N-(3-(5-fluoro-2-((2-fluoro-3-(methylsulfonyl)phenyl)amino)pyrimidin-4-yl)-1H-indol-7-yl)-2-(4-methylpiperazin-1-yl)propanamide] |
| > 30000 | > 30000 | 933 | 482 | COC[C@@H](C(=O)Nc1cccc2c(-c3nc(Nc4cccc(S(C)(=O)=O)c4F)ncc3F)c[nH]c12)N1C[C@@H](C)N[C@H](C)C1 [Example 32] |
| > 30000 | 718 | 36 | < 3 | COC[C@H](C(=O)Nc1cccc2c(-c3nc(Nc4cccc(S(C)(=O)=O)c4F)ncc3F)c[nH]c12)N1CCCN(C)CC1 [Example 45, (R)-N-(3-(5-fluoro-2-((2-fluoro-3-(methylsulfonyl)phenyl)amino)pyrimidin-4-yl)-1H-indol-7-yl)-3-methoxy-2-(4-methyl-1,4-diazepan-1-yl)propanamide] |
| > 30000 |  | 18 | < 3 | COC[C@H](C(=O)Nc1cccc2c(-c3nc(Nc4cccc(S(C)(=O)=O)c4F)ncc3C)c[nH]c12)N1CCN(C)CC1 [Example 16, (R)-N-(3-(2-((2-fluoro-3-(methylsulfonyl)phenyl)amino)-5-methylpyrimidin-4-yl)-1H-indol-7-yl)-3-methoxy-2-(4-methylpiperazin-1-yl)propanamide] |
| > 30000 | > 30000 | 423 | 143 | CC[C@@H](C(=O)Nc1cccc2c(-c3nc(Nc4cccc(S(C)(=O)=O)c4F)ncc3C)c[nH]c12)N1C[C@H](C)N(C)[C@@H](C)C1 [Example 19, (S)-N-(3-(2-((2-fluoro-3-(methylsulfonyl)phenyl)amino)-5-methylpyrimidin-4-yl)-1H-indol-7-yl)-2-((3S,5S)-3,4,5-trimethylpiperazin-1-yl)butanamide] |
| > 30000 | 2080 | 48 | < 3 | CC[C@H](C(=O)Nc1cccc2c(-c3nc(Nc4cccc(S(C)(=O)=O)c4F)ncc3F)c[nH]c12)N1CCN(C)CC1C (stereo in doubt) [Example 53, (R)-2-((R)-2,4-dimethylpiperazin-1-yl)-N-(3-(5-fluoro-2-((2-fluoro-3-(methylsulfonyl)phenyl)amino)pyrimidin-4-yl)-1H-indol-7-yl)butanamide] |
| > 30000 | > 30000 | 446 | 256 | CC[C@@H](C(=O)Nc1cccc2c(-c3nc(Nc4cccc(S(C)(=O)=O)c4F)ncc3F)c[nH]c12)N1CCN(C)CC1 [Example 39, (S)-N-(3-(5-fluoro-2-((2-fluoro-3-(methylsulfonyl)phenyl)amino)pyrimidin-4-yl)-1H-indol-7-yl)-2-(4-methylpiperazin-1-yl)butanamide] |
| > 30000 | 6720 | 258 | 14 | COC[C@@H](C(=O)Nc1cccc2c(-c3nc(Nc4cccc(S(C)(=O)=O)c4F)ncc3C)c[nH]c12)N1CCN(C)C[C@H]1C [Example 54, (S)-2-((R)-2,4-dimethylpiperazin-1-yl)-N-(3-(2-((2-fluoro-(methylsulfonyl)phenyl)amino)-5-methylpyrimidin-4-yl)-1H-indol-7-yl)-3-methoxypropanamide] |
| > 30000 |  | > 4200 | 1840 | COC[C@@H](C(=O)Nc1cccc2c(-c3nc(Nc4cccc(S(C)(=O)=O)c4F)ncc3F)c[nH]c12)N1CCN(C)CC1 [Example 34, (S)-N-(3-(5-fluoro-2-((2-fluoro-3-(methylsulfonyl)phenyl)amino)pyrimidin-4-yl)-1H-indol-7-yl)-3-methoxy-2-(4-methylpiperazin-1-yl)propanamide] |
| > 30000 | 11900 | 64.2 | 7.4 | CC[C@H](C(=O)Nc1cccc2c(-c3nc(Nc4cccc(S(C)(=O)=O)c4F)ncc3C)c[nH]c12)N1CCN(C)CC1C (stereo in doubt) [Example 60, (R)-2-((S)-2,4-dimethylpiperazin-1-yl)-N-(3-(2-((2-fluoro-3-(methylsulfonyl)phenyl)amino)-5-methylpyrimidin-4-yl)-1H-indol-7-yl)butanamide] |
| > 30000 | 4140 | 54 | < 3 | CCOC[C@H](C(=O)Nc1cccc2c(-c3nc(Nc4cccc(S(C)(=O)=O)c4F)ncc3C)c[nH]c12)N1CCN(C)CC1 [Example 62, (R)-3-ethoxy-N-(3-(2-((2-fluoro-3-(methylsulfonyl)phenyl)amino)-5-methylpyrimidin-4-yl)-1H-indol-7-yl)-2-(4-methylpiperazin-1-yl)propanamide] |
| > 30000 | > 30000 | 3050 | 953 | COC[C@@H](C(=O)Nc1cccc2c(-c3nc(Nc4cccc(S(C)(=O)=O)c4F)ncc3F)c[nH]c12)N1CCCN(C)CC1 [Example 44, (S)-N-(3-(5-fluoro-2-((2-fluoro-3-(methylsulfonyl)phenyl)amino)pyrimidin-4-yl)-1H-indol-7-yl)-3-methoxy-2-(4-methyl-1,4-diazepan-1-yl)propanamide] |
| > 30000 |  | 465 | 213 | COC[C@@H](C(=O)Nc1cccc2c(-c3nc(Nc4cccc(S(C)(=O)=O)c4F)ncc3C)c[nH]c12)N1CCN(C)CC1 [Example 15, (S)-N-(3-(2-((2-fluoro-3-(methylsulfonyl)phenyl)amino)-5-methylpyrimidin-4-yl)-1H-indol-7-yl)-3-methoxy-2-(4-methylpiperazin-1-yl)propanamide] |
| > 30000 | 604 | 36 | < 3 | COC[C@H](C(=O)Nc1cccc2c(-c3nc(Nc4cccc(S(C)(=O)=O)c4F)ncc3C)c[nH]c12)N1CCCN(C)CC1 [Example 42, (R)-N-(3-(2-((2-fluoro-3-(methylsulfonyl)phenyl)amino)-5-methylpyrimidin-4-yl)-1H-indol-7-yl)-3-methoxy-2-(4-methyl-1,4-diazepan-1-yl) propanamide] |
|  |  | 1390 |  | COC[C@@H](C(=O)Nc1cccc2c(-c3nc(Nc4cccc(S(C)(=O)=O)c4F)ncc3F)c[nH]c12)N1CCNCC1 [Example 67, (S)-N-(3-(5-fluoro-2-(2-fluoro-3-(methylsulfonyl)phenylamino)pyrimidin-4-yl)-1H-indol-7-yl)-3-methoxy-2-(piperazin-1-yl)propanamide] |
|  |  | 51 |  | COC[C@H](C(=O)Nc1cccc2c(-c3nc(Nc4cccc(S(C)(=O)=O)c4F)ncc3F)c[nH]c12)N1CCNCC1 [Example 66, (R)-N-(3-(5-fluoro-2-(2-fluoro-3-(methylsulfonyl)phenylamino)pyrimidin-4-yl)-1H-indol-7-yl)-3-methoxy-2-(piperazin-1-yl)propanamide] |
|  |  | 55 |  | Cc1cnc(Nc2cccc(S(C)(=O)=O)c2F)nc1-c1c[nH]c2c(NC(=O)[C@@H](C)N3C[C@H](C)N[C@@H](C)C3)cccc12 [Example 9, (R)-2-((3S,5S)-3,5-dimethylpiperazin-1-yl)-N-(3-(2-((2-fluoro-3-(methylsulfonyl)phenyl)amino)-5-methylpyrimidin-4-yl)-1H-indol-7-yl)propanamide] |
|  |  | 51 |  | CC[C@H](C(=O)Nc1cccc2c(-c3nc(Nc4cccc(S(C)(=O)=O)c4F)ncc3C)c[nH]c12)N1C[C@H](C)N(C)[C@@H](C)C1 [Example 20, (R)-N-(3-(2-((2-fluoro-3-(methylsulfonyl)phenyl)amino)-5-methylpyrimidin-4-yl)-1H-indol-7-yl)-2-((3S,5S)-3,4,5-trimethylpiperazin-1-yl)butanamide] |
